Reference: publication PMC6001782 (Chemistry (Weinheim an Der Bergstrasse, Germany), 2018)

Biological target: T1, BtGH99 (Bacteroides thetaiotaomicron, UniProt Q8A109)
T1 sequence (Q8A109 18-382): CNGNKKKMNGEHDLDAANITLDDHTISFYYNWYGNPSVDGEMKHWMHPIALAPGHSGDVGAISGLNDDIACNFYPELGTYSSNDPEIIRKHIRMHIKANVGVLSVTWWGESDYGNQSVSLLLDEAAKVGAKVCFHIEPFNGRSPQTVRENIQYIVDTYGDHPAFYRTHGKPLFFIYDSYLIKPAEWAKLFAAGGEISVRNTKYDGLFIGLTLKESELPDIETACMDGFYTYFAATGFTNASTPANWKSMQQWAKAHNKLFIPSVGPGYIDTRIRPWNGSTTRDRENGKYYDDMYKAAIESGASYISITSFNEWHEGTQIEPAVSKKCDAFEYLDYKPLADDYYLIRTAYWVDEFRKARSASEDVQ
Assay: isothermal titration calorimetry
Format: binding

- Kd: 97.7 ± 4.9 µM
SMILES: N[C@@H]1CN[C@H](CO)[C@@H](O)[C@@H]1O[C@H]1O[C@H](CO)[C@@H](O)[C@H](O)[C@@H]1O [compound 1, α‐D‐Mannopyranosyl‐(1→3)‐2‐amino‐1,2,5‐trideoxy‐1,5‐imino‐D‐mannitol]
